1 compound from ChEMBL document CHEMBL5727462, “Benzimidazole derivates useful as inhibitors of mammalian histone deacetylase activity” (2019) can be followed below.

Broadly, the IC50 is the concentration at which inhibition is half-maximal.

In this experiment the target is T1, Protein deacetylase HDAC6 (Homo sapiens, UniProt Q9UBN7).
T1 sequence (Q9UBN7 whole entry): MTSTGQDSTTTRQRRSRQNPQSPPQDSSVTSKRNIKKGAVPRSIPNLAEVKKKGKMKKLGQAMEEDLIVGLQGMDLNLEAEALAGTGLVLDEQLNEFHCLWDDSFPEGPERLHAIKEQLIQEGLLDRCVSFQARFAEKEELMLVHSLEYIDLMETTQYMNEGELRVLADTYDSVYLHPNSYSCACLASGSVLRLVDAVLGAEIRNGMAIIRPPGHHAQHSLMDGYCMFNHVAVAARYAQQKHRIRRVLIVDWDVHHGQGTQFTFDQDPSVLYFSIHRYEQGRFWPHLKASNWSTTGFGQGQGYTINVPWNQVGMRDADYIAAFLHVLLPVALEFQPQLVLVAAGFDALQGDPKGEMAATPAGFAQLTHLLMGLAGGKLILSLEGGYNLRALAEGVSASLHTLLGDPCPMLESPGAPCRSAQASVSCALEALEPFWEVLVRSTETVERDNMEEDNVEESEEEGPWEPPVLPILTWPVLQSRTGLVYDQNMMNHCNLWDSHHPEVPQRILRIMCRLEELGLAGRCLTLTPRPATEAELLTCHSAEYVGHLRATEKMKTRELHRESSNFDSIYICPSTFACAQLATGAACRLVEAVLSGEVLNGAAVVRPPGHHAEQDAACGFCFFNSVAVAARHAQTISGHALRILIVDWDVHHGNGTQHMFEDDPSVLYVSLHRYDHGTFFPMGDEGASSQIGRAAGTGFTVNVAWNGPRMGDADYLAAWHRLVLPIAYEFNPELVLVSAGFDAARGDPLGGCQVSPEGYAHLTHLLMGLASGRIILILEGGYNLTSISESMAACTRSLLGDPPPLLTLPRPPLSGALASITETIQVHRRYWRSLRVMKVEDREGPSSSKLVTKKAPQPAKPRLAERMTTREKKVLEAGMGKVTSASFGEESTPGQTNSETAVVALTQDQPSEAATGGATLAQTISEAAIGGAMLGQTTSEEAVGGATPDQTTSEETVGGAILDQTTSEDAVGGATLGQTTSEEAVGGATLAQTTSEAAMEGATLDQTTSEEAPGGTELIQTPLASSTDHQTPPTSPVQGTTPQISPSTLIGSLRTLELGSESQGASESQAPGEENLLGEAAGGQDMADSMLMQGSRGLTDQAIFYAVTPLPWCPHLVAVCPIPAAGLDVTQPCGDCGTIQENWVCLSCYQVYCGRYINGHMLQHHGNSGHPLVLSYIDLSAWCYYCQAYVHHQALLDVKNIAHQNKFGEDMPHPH
The experiment is described as follows: In vitro enzymatic HDACs assays: All Examples were tested in HDAC1, 2, 3, 6 and 8 in vitro enzymatic assays. The assay principle is well known (Hauser et al. 2009, Bradner et al. 2010) and all necessary reagents like enzymes, substrates, developer and reference compounds are commercially available (see e.g. BPS Biosciences http://www.bpsbioscience.com/). A series of dilutions of the compounds were prepared with a top concentration of 200 μM (2 μM for HDAC6). The enzymatic reactions were conducted in a mixture containing assay buffer, bovine serum albumin, HDAC substrate, and a test compound. After enzymatic reaction, developer was added and after an additional incubation time, fluorescence intensity was measured at an excitation wavelength of 360 nm and an emission wavelength of 460 nm. A selection of the Examples were tested in a full HDAC panel containing HDAC1, 2, 3, 4, 5, 6, 7, 8, 9, 10 and 11 in vitro enzymatic assays. The tests were performed as above except that a series of dilutions of the compounds were prepared with a top concentration of 10 μM for all HDACs.

Regarding `O=C(NO)c1ccc2nc(-c3ccc(-c4ccccc4)c(F)c3)[nH]c2c1`, the IC50 was 19 nM.
